ChEMBL document CHEMBL1128620, “Relationship between cytotoxicity and DNA-binding affinity of amidine derivatives of tetrahydroquino[4,3-b][1]benzazepines and tetrahydrobenzo[k]naphthyridines” (Bioorg Med Chem Lett, 1995)

Experiments:
CH1 = assay: In vitro cytotoxicity against CH1 ovarian carcinoma cells; format: functional, cell-based; conditions: Homo sapiens
Nucleic Acid = assay: DNA binding affinity was evaluated as thermal denaturation using calf thymus DNA; format: nucleic-acid assay; conditions: Bos taurus
SK-OV-3 = assay: In vitro cytotoxicity against SKOV-3 ovarian carcinoma cells; format: functional, cell-based; conditions: Homo sapiens

| ΔTm (Nucleic Acid) | Compound | IC50 (CH1) | IC50 (SK-OV-3) |
| --- | --- | --- | --- |
| 1.14 °C | CNc1cccc2c1C(C)C[C@]1(C)C(NCCCCN)=Nc3ccccc3[C@H]21 (some centres undefined) | 3.5 µM | 2.25 µM |
| 0.35 °C | CNc1cccc2c1C(C)C[C@]1(C)C(NCCCO)=Nc3ccccc3[C@H]21 (some centres undefined) | 6 µM | 12.5 µM |
| 0.24 °C | CC1C[C@]2(C)C(NCCCO)=Nc3ccccc3[C@@H]2N(C)c2ccccc21 (some centres undefined) | 14 µM | 32.5 µM |
| 0.29 °C | CCCNC1=Nc2ccccc2[C@@H]2c3cccc(NC)c3C(C)C[C@]12C (some centres undefined) | 9 µM | 12 µM |
| 0.58 °C | CC1C[C@]2(C)C(NCCCCN)=Nc3ccccc3[C@@H]2N(C)c2ccccc21 (some centres undefined) | 1.6 µM | 1.6 µM |
| 0.17 °C | CCCNC1=Nc2ccccc2[C@@H]2N(C)c3ccccc3C(C)C[C@]12C (some centres undefined) | 10.5 µM | 1.4 µM |
| 0.88 °C | CNc1cccc2c1C(C)C[C@]1(C)C(NCCCN)=Nc3ccccc3[C@H]21 (some centres undefined) | 2 µM | 3.1 µM |
| 0.46 °C | CC1C[C@]2(C)C(NCCCN)=Nc3ccccc3[C@@H]2N(C)c2ccccc21 (some centres undefined) | 0.5 µM | 3.3 µM |
